The text below walks through data of PMC6397180 (Scientific Reports, 2019).

“And” between values parts separate entries of the source, which are not always exact repeats. Equal values may be shown once.

Data set [1] has as its system h-Hu_C20 human microglial cells. Nature of the data set: qRT-PCR of cytokine gene expression in C20 cells exposed to Tat. Conditions: equivalent levels of Tat proteins applied; compared with position 57 variant of the same clade. The format is cell-based. The protocol:
We transfected 2 × 10^6 HeLa cells with pEGFP, pcDNA 3.1 and the plasmids expressing the four Tat variants. At 24 hours post transfection, media were collected and Tat ELISA performed to determine the amount of Tat present. C20 microglia (2 × 10^6) were incubated with equal amounts of Tat media for 24 h. PMA (5 ng) or LPS (5 ng) were also included in separate wells as controls. C20 cells were washed with PBS, treated with trypsin, pelleted by centrifugation at 500 × g for 10 minutes, and total cell RNA isolated using an RNeasy Kit (Qiagen). RNA was reverse transcribed in a first-strand cDNA synthesis reaction (GoScript, Promega), using oligo dT primers. The cDNA was diluted to 100 ng per 3 μL in each reaction well, and combined with 2x Taqman Gene Expression Master Mix (ThermoFisher) and Taqman Gene Expression Assay primer-probes: GAPDH (Hs02758991_g1), IL6 (Hs00985639_m1), IL8 (Hs00174103_m1), IL-1β (Hs00174097_m1) or CXCL1 (Hs00236937_m1). Each sample was assayed in triplicate on a 384-well plate, and run under standard qRT-PCR cycling conditions on a 7900HT instrument (ABI).
A general note: Real-time PCR tracks product formation cycle by cycle.

Data set [2] concerns primary human neuron-astrocyte co-cultures. The experiment in a line: Treatment of neurons with spent media from Tat-exposed microglia. The following applies: co-cultures treated 30 h with 200 µl spent media from Tat-exposed microglia, neurotubulin staining. The format is cell-based. The protocol:
(§1) C20 microglia were exposed for 24 h, to equivalent inputs of HeLa cell media containing Tat protein (Tat-B*, Tat-B* R57S, Tat-C or Tat-C S57R or empty vector) as described above for cytokine expression. As a control, spent media of HeLa cells transfected with an empty pcDNA 3.1 construct was used. Approximately 50, 000 cells containing a mixture of human fetal neurons and glia plated on 35 mm MatTek plates were treated with 200 µl of spent media from Tat-exposed microglial cultures for 30 h.
For the purpose of imaging of neurons and quantifying axonal/dendritic lengths, neurons treated as above were fixed with 4% PFA for 15 min and washed with 1x PBS. Cells were permeabilized with 0.1% Triton X-100 for 3 minutes and washed as before. Non-specific sites were blocked with 1X SBS buffer (50 mM EDTA, 0.01% Fish Gelatin, 0.1 g BSA, 1% Horse serum in PBS) for 1 h at room temperature and the cells washed. Cells were stained with anti-neurotubulin antibodies, anti-GFAP antibodies and DAPI to stain neurons, glial cells and nuclei respectively. Neuronal images were captured using a Leica Confocal TCS SP5 microscope (Leica Microsystems, Bannockburn, IL). Axonal/dendritic lengths were quantified using Volocity 6.3 software.

The subject of the next data set is C20 microglial cells. Nature of the data set: TNFα protein in supernatants of Tat-treated microglia (Luminex cytokine detection assay). The data set is classed as cell-based, human. Conditions: C20 microglia exposed 24 h to equivalent inputs of Tat-containing HeLa media. The protocol:
as §1

In another data set the test system is 293T cells. The experiment in a line: Flow cytometry of labeled CPP uptake. The data set is classed as cell-based, human. The following applies: for effect of soluble heparin on CPP uptake: 293T cells incubated with labeled CPPs and increasing concentrations of soluble heparin; for decrease of CPP uptake at 4 °C compared with 37 °C: 2 μM CPP, 4 °C (10 min pre-incubation) vs 37 °C. The method, then: 293T cells were plated in 12-well plates at 2.5 × 10^5 cells per well, to achieve approximately 70% - 80% confluence by the next day. Thirty minutes before the experiment, cell medium was changed to low-serum DMEM with 1% Pen-Strep. Cells were washed once with PBS, treated with Tat-CPP in low-serum DMEM, and placed in either a tissue-culture incubator (37 °C/5% CO2) or a refrigerator (4 °C)(samples treated at 4 °C were pre-incubated in refrigerator for 10 minutes before CPP treatment). Cells were gently washed twice with PBS (w/10%FBS), then treated with 300 µl of pre-warmed 0.05% trypsin for 5 min, to detach cells and enzymatically digest surface-bound Tat-CPP. Cells were resuspended in 1 ml PBS (with 10% FBS and 2 mM EDTA), and peptide uptake assessed by flow cytometry (FACScalibur). Live cells were gated using forward-scatter and side-scatter ratio, then interrogated >10,000 live-cell events each for fluorescence signal emission at 488 nm. Data was analyzed using FlowJo software v9.3.3 (FlowJo LLC). To adjust for differences in instrument settings and voltage adjustments between experiments we transformed the raw MFI values within each experiment into values proportional to the greatest MFI reading in that particular experiment. Heparinase enzymes were used to pre-treat cells by combination of Heparinase I and III at 17 IU and 1 IU, respectively, per mL of plain DMEM. Cells were treated with enzymes for 2 h in an 37 °C, then washed with PBS and exposed to CPPs as above.
In general terms: In flow cytometry, cells or beads pass a laser one at a time.

Data set [3] concerns interaction of Tat with HSPGs on TZM-bl cells. Nature of the data set: Inhibition of transcellular transactivation by HSPG competitive antagonists. Conditions: TZM-bl cells exposed to Tat-B-WT produced in HeLa cells. The data set is classed as cell-based, human. The protocol: HeLa cells were seeded in 6-well plates at 7.5 × 10^5 cells per well and transfected with 2.5 μg of Tat expression plasmid DNA (Lipofectamine 3000, Invitrogen). After 6 h, the media was replaced with DMEM/10% FBS. Next day, TZM-bl reporter cells were seeded in a 24-well plate, at 1.5 × 10^5 cells per well. Similarly, C20 microglial cells were seeded in a 12-well plate, at 3 × 10^5 cells per well. After allowing 5–6 h for cell attachment, supernatant from the tat-transfected HeLa cells was collected, which was centrifuged at 500 × g for 10 minutes to remove debris and dead cells. Importantly, at this step and all others involving handling of Tat-containing media, siliconized tubes and tips were used to minimize the adsorption of Tat to surfaces. Tat-transfected HeLa supernatants were used to replace either TZM-bl media (400 μL) or C20 media (800 μL), and the cells incubated for 12 h (C20) or 24 h (TZM-bl).
TZM-bl cell lysates were harvested and stored at −80 °C until luciferase activity was measured. Frozen TZM-bl cell lysates were thawed on ice for 30 minutes, centrifuged at 14,000 × g for 2 minutes, and the protein concentration in the supernatants measured by BCA protein assay. […] The side of the plate was gently tapped and each sample was immediately assayed for luciferase activity using a plate-reader, measuring each sample in Relative Light Units (RLU) (PerkinElmer VICTOR-2).

The subject of data set [4] is PMA-differentiated THP-1 cells. Nature of the data set: Confocal microscopy of labeled CPP uptake. Conditions: 1 μM peptide, 37 °C, 30 minutes, trypsin to strip surface-bound CPP, fluorescence 488 nm. The format is cell-based.
Protocol: Approximately 4 × 10^5 THP-1 cells were plated in 35 mm MatTek cover dishes in media containing 10 nM PMA to induce adherence and differentiation. After 48 h the media was changed to RPMI/FBS without PMA. Thirty minutes before adding the labeled-CPPs, cell media were replaced with low serum (1% FBS) RPMI. THP-1 cells were treated with CPP for 30 minutes at 37 °C, washed twice with phosphate buffered saline (PBS) in 10% FBS, and incubated with 0.05% trypsin for 10 minutes to digest any surface-bound CPPs. Cells were washed twice with PBS/FBS and then incubated for 20 minutes in Hank’s Buffered Salt Solution (HBSS) with 1X diluted WGA-633 cell membrane stain (Life Technologies). […] Cells were imaged using a Leica SP8 Confocal Microscope and collected fluorescence data from 405 nm (DAPI stained cell nuclei), 488 nm (internalized labeled-CPP signal), and 633 nm (WGA-633 stained plasma membrane) channels as a series of Z-stacks. Analysis of cells with red and green fluorescence was conducted using Image J. The perimeter of each cell was circled using the red stain as a guide. Subsequently, mean intensity of green fluorescence contained in each cell was measured. For each condition, three random fields of view were analyzed.
Data set [5] relates to LTR-driven luciferase reporter gene in TZM-bl cells. The format is cell-based, human.

Regarding “Tat-B*: Tat-B variant with R7N and K12N mutations and C-terminal myc tag”, the “inflammatory cytokine gene transcripts IL-6, IL-8, IL-1β and CXCL1” value in data set [1] is reported as “higher levels”. Moreover, the “appearance of neuronal processes (dendrites and axons)” value in data set [2] is “shorter and thinner”. The “TNFα protein levels in supernatants of Tat-treated microglia” value in the data set on C20 microglial cells turned out to be 19.2 ng/mL.

Turning to “GRKKRRQRRS [CPP-S57, Tat CPP decapeptide (residues 48–57) of HIV-1C, N-terminal HiLyte Fluor 488 tag]”, the “uptake in dose response” value in the data set with 293T cells (293T and THP1 cells, increasing concentrations of CPP, flow cytometry) is recorded as “reduced uptake”. The “effect of soluble heparin on CPP uptake” value in the data set with 293T cells was “dose-dependent inhibition of uptake”. The “decrease of CPP uptake at 4 °C compared with 37 °C” value in the data set on 293T cells (293T cells, flow cytometry) is 50% and ~ 50%.

For the molecule `Cc1ccc(C(=O)Nc2ccc(S(=O)(=O)O)c3cc(S(=O)(=O)O)cc(S(=O)(=O)O)c23)cc1NC(=O)c1cccc(NC(=O)Nc2cccc(C(=O)Nc3cc(C(=O)Nc4ccc(S(=O)(=O)O)c5cc(S(=O)(=O)O)cc(S(=O)(=O)O)c45)ccc3C)c2)c1` [suramin], the “concentration sufficient to diminish transcellular transactivation of extracellular Tat to near background levels” value in data set [3] is 100 µg/mL.

Take “GRKKRRQRRR [CPP-R57, Tat CPP decapeptide (residues 48–57) of HIV-1B, N-terminal HiLyte Fluor 488 tag]”: in the data set with 293T cells, the “effect of soluble heparin on CPP uptake” value is recorded as “dose-dependent inhibition of uptake”. Further, in the data set with 293T cells (293T cells, flow cytometry), the “decrease of CPP uptake at 4 °C compared with 37 °C” value was ~ 75%. Further, in the data set with 293T cells (293T cells, flow cytometry, 2 μM peptide, n = 4), the “CPP-R57 uptake relative to CPP-S57” value is on record as 3–4 fold. Moreover, the “internalization of labeled peptide (confocal microscopy)” value in data set [4] was “higher amount of labeled peptide”.

In the case of heparin, the “concentration sufficient to diminish transcellular transactivation of extracellular Tat to near background levels” value in data set [3] turned out to be 10 µg/mL.

B1: Tat-B-49AAA51: Tat-B with triple alanine substitution in residues 49-RKK-51 (protein, UniProt P04608 1-86, looked up, variant R49A K50A K51A)
Protein Tat: MEPVDPRLEPWKHPGSQPKTACTNCYCKKCCFHCQVCFITKALGISYGAAARRQRRRAHQNSQTHQASLSKQPTSQPRGDPTGPKE
For B1, the “transcriptional activity relative to TatB-WT” value in data set [5] came out at 10%. Moreover, the “decrease of luciferase output upon direct transfection” value in data set [5] (TZM-bl cells directly transfected, relative to Tat-B-WT) is on record as “approximately 90%”.
